The results in this text go back to patent US11123313B2, “Methods and compositions for treating sleep apnea” (The Brigham and Women's Hospital, Inc., priority 2017, dated 2021).

The test system of the experiment is obstructive sleep apnea (OSA) human patients. The note with it: seven OSA patients, 2 additional nights with single drugs.

Procedure: Subsequently, a placebo-controlled, double-blinded, randomized, crossover trial in 20 obstructive sleep apnea (OSA) human patients was performed. Participants received treatment (Atomoxetine 80 mg+Oxybutynin 5 mg) or placebo in randomized order 30 minutes before sleep. […] Data are expressed as median [25th-75th percentile]
Seven OSA patients were studied also on 2 additional nights in which the 2 drugs were administered alone (not in combination).
Group data was obtained using genioglossus electromyography in 16 out of 20 patients who took part to the original trial to determine the effect of Atomoxetine plus Oxybutynin (ato-oxy) on genioglossus muscle responsiveness. Muscle responsiveness reflects the change in genioglossus muscle electromyographic activity (percent of baseline) per change in esophageal pressure (Pes) swings during spontaneous breathing in non-REM sleep (see FIG. 10B for physiological context).

Turning to `CCN(CC)CC#CCOC(=O)C(O)(c1ccccc1)C1CCCCC1` (centres unmarked) [Oxybutynin], the “AHI compared to placebo, drugs alone vs in combination” value is reported as “did not improve the AHI”.

Turning to `CNCC[C@@H](Oc1ccccc1C)c1ccccc1` [Atomoxetine], the “AHI compared to placebo, drugs alone vs in combination” value is listed as “did not improve the AHI”.
